Measured values as given in US10316049B2, “Tank-binding kinase inhibitor compounds” (Gilead Sciences, Inc., priority 2015, dated 2019).

Experiments:
TBK1 = molecular target: T1, TBK1 (Homo sapiens, UniProt Q9UHD2); assay: TR-FRET enzymatic activity assay, TBK1; format: biochemical; also: full length recombinant TBK1 at 2.5 nM
T1 construct: TBK1 and IKKε were expressed and purified as full length recombinant proteins; made in house
T1 sequence (Q9UHD2 1-729): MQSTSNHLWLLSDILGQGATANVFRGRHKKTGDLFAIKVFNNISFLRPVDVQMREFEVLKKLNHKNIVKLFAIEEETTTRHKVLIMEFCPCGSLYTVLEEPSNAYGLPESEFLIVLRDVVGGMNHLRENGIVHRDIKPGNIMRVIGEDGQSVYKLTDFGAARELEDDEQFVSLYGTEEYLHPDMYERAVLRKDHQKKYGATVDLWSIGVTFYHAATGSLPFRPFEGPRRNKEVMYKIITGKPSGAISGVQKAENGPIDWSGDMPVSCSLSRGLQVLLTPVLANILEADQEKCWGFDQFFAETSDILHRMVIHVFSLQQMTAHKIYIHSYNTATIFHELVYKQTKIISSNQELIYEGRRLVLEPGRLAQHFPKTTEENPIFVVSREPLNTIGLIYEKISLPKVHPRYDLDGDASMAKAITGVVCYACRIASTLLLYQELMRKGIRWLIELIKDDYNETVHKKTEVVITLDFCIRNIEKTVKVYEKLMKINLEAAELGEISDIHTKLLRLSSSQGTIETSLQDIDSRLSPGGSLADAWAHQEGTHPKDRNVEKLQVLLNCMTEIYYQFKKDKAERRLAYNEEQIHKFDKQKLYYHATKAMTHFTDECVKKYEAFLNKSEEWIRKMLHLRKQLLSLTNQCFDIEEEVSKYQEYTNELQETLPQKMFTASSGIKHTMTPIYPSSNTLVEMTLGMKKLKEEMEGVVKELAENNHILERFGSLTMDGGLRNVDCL
In short: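 Full-length recombinant enzymes phosphorylated a biotinylated Ser/Thr peptide for 240 min at 25 °C, stopped with EDTA. Phosphopeptide detected by TR-FRET (streptavidin XL665, Eu-cryptate anti-phospho antibody). IC50 from four-parameter fits normalized to 1 μM staurosporine and DMSO controls, as geometric means of at least four determinations.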

IKKε = molecular target: T2, IKKε (Homo sapiens, UniProt Q14164); assay: TR-FRET enzymatic activity assay, IKKε; format: biochemical; conditions: read-out: IKKϵ IC50; also: full length recombinant IKKε at 0.3 nM
T2 construct: TBK1 and IKKε were expressed and purified as full length recombinant proteins; made in house
T2 sequence (Q14164 1-716): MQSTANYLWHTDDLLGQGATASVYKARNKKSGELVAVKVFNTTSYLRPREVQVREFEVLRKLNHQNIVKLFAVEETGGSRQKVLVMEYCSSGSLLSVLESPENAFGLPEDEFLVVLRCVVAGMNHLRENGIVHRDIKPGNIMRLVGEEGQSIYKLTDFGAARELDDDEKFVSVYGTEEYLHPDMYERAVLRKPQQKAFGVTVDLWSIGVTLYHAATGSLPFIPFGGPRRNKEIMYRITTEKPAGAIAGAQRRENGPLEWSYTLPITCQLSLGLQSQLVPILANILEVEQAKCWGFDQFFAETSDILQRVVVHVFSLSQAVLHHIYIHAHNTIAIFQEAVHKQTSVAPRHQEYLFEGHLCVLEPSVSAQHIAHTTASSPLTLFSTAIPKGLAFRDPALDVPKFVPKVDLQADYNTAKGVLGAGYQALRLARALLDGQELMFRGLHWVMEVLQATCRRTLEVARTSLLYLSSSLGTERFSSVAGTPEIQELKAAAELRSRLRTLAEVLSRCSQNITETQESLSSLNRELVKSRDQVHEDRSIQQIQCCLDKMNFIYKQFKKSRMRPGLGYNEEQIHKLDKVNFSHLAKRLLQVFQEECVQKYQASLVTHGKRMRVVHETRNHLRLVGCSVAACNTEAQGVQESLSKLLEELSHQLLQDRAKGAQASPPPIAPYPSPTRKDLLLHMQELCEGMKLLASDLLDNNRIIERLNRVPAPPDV
In short: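 Full-length recombinant IKKε phosphorylated a biotinylated Ser/Thr peptide for 240 min at 25 °C; EDTA stop. Phospho-peptide detected by TR-FRET with streptavidin-XL665 (125 nM) and Eu-cryptate anti-phospho antibody. Normalised to staurosporine and DMSO controls; IC50 from four-parameter fit, geometric mean of ≥4 runs.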

Row | SMILES | IC50 (TBK1) [nM] | IC50 (IKKε) [nM]
1 | N#Cc1cc(-c2ccnc(NC(=O)[C@H]3C[C@@H]3c3cccnc3)c2)ccc1O[C@H]1CCN(C(=O)CO)C[C@H]1F [Example 136, (1S,2S)—N-(4-(3-cyano-4-(((3R,4S)-3-fluoro-1-(2-hydroxyacetyl)piperidin-4-yl)oxy)phenyl)pyridin-2-yl)-2-(pyridin-3-yl)cyclopropane-1-carboxamide] | 3.5 | 10.4
2 | N#Cc1cc(-c2ccnc(NC(=O)[C@H]3C[C@H]3F)c2)ccc1O[C@H]1CCN(C(=O)CO)C[C@H]1F [Example 59, (1R,2R)—N-(4-(3-cyano-4-(((3R,4S)-3-fluoro-1-(2-hydroxyacetyl)piperidin-4-yl)oxy)phenyl)pyridin-2-yl)-2-fluorocyclopropanecarboxamide] | 33.8 | 39.7
3 | N#Cc1cc(-c2ccnc(NC(=O)C3CC34CCOC4)c2)ccc1OC1CCOCC1 (stereo not drawn) [Example 117, N-(4-(3-Cyano-4-((tetrahydro-2H-pyran-4-yl)oxy)phenyl)pyridin-2-yl)-5-oxaspiro[2.4]heptane-1-carboxamide] | 851 | > 1000
4 | N#Cc1cc(-c2ccnc(NC(=O)[C@@H]3C[C@H]3c3cncnc3)c2)ccc1O[C@H]1CCN(C(=O)CO)C[C@H]1F [Example 149, (1,2-Trans)-N-(4-(3-cyano-4-(((3R,4S)-3-fluoro-1-(2-hydroxyacetyl)piperidin-4-yl)oxy)phenyl)pyridin-2-yl)-2-(pyrimidin-5-yl)cyclopropane-1-carboxamide] | 15.9 | 99.2
5 | N#Cc1cc(-c2ccnc(NC(=O)C3CCC3)c2)ccc1OC1CCOCC1 [Example 3, N-(4-(3-cyano-4-((tetrahydro-2H-pyran-4-yl)oxy)phenyl)pyridin-2-yl)cyclobutanecarboxamide] | 335 | 284
6 | N#Cc1cc(-c2ccnc(NC(=O)[C@@H]3C[C@@H]3CO)c2)ccc1O[C@H]1CCN(C(=O)CO)C[C@H]1F [Example 74, (1,2-cis)-N-(4-(3-Cyano-4-(((3R,4S)-3-fluoro-1-(2-hydroxyacetyl)piperidin-4-yl)oxy)phenyl)pyridin-2-yl)-2-(hydroxymethyl)cyclopropane-1-carboxamide] | 99.3 | 145
7 | Cn1cc([C@H]2C[C@@H]2C(=O)Nc2cc(-c3ccc(O[C@H]4CCN(C(=O)CO)CC4(F)F)c(C#N)c3)ccn2)cn1 [Example 122, (1S, 2S)—N-(4-(3-cyano-4-(((S)-3,3-difluoro-1-(2-hydroxyacetyl)piperidin-4-yl)oxy)phenyl)pyridin-2-yl)-2-(1-methyl-1H-pyrazol-4-yl)cyclopropane-1-carboxamide] | 6 | 4.9
8 | N#CCC(=O)N1CC[C@H](Oc2ccc(-c3ccnc(NC(=O)C4CC4)c3)cc2C#N)C(F)(F)C1 [Example 13, (S)—N-(4-(3-cyano-4-((1-(2-cyanoacetyl)-3,3-difluoropiperidin-4-yl)oxy)phenyl)pyridin-2-yl)cyclopropanecarboxamide] | 12.4 | 44
9 | CC1CC1C(=O)Nc1cc(-c2ccc(O[C@H]3CCN(C(=O)CO)C[C@H]3F)c(C#N)c2)ccn1 (stereo partly drawn) [Example 70, N-(4-(3-Cyano-4-(((3R,4S)-3-fluoro-1-(2-hydroxyacetyl)piperidin-4-yl)oxy)phenyl)pyridin-2-yl)-2-methylcyclopropanecarboxamide] | 8.9 | 26.1
10 | N#Cc1cc(-c2ccnc(NC(=O)C3CC3)c2)ccc1OC1CCOCC1 [Example 2, N-(4-(3-cyano-4-((tetrahydro-2H-pyran-4-yl)oxy)phenyl)pyridin-2-yl)cyclopropanecarboxamide] | 28.1 | 115
11 | C[C@H](O)C(=O)N1CC[C@H](Oc2ccc(-c3ccnc(NC(=O)C4CC4)c3)cc2C#N)C(F)(F)C1 [Example 11, N-(4-(3-cyano-4-(((S)-3,3-difluoro-1-((S)-2 hydroxypropanoyl)piperidin-4-yl)oxy)phenyl)pyridin-2-yl)cyclopropanecarboxamide] | 10.2 | 26.3
12 | N#Cc1cc(-c2cc(NC(=O)C3CC3)ncn2)ccc1O [Example 109, N-(6-(3-cyano-4-hydroxyphenyl)pyrimidin-4-yl)cyclopropanecarboxamide] | 826 | > 1000
13 | N#Cc1cc(-c2ccnc(NC(=O)[C@H]3C[C@@H]3C(F)F)c2)ccc1OC1CCOCC1 (relative stereo) [Example 101, (1,2-trans)-N-(4-(3-cyano-4-((tetrahydro-2H-pyran-4-yl)oxy)phenyl)pyridin-2-yl)-2-(difluoromethyl)cyclopropane-1-carboxamide] | 96.8 | > 1000
14 | COCC(=O)N1CC[C@H](Oc2ccc(-c3ccnc(NC(=O)[C@H]4C[C@@H]4F)c3)cc2C#N)[C@H](F)C1 [Example 68, (1,2-trans)-N-(4-(3-Cyano-4-(((3R,4S)-3-fluoro-1-(2-methoxyacetyl)piperidin-4-yl)oxy)phenyl)pyridin-2-yl)-2-fluorocyclopropane-1-carboxamide] | 34.2 | 87.8
15 | CO[C@@H]1CCN(c2ccc(-c3ccnc(NC(=O)C4CC4)c3)cc2C#N)C1 [Example 97, (R)—N-(4-(3-cyano-4-(3-methoxypyrrolidin-1-yl)phenyl)pyridin-2-yl)cyclopropanecarboxamide] | 270 | 477
16 | N#Cc1cc(-c2cc(NC(=O)[C@@H]3C[C@H]3c3cccnc3)ncn2)ccc1O[C@H]1CCN(C(=O)CO)CC1(F)F [Example 129, (1,2-Trans)-N-(6-(3-cyano-4-(((S)-3,3-difluoro-1-(2-hydroxyacetyl)piperidin-4-yl)oxy)phenyl)pyrimidin-4-yl)-2-(pyridin-3-yl)cyclopropane-1-carboxamide] | 9.3 | 32.2
17 | N#Cc1cc(-c2ccnc(NC(=O)C3C4CC3C4C(N)=O)c2)ccc1OC1CCOCC1 (stereo not drawn) [Example 56, N-(4-(3-cyano-4-((tetrahydro-2H-pyran-4-yl)oxy)phenyl)pyridin-2-yl)bicyclo[1.1.1]pentane-2,4-dicarboxamide] | > 1000 | 444
18 | N#Cc1cc(-c2cc(NC(=O)C3CC3)ncn2)ccc1O[C@H]1CCN(C(=O)[C@@H]2COC(=O)N2)CC1(F)F [Example 155, N-(6-(3-cyano-4-(((S)-3,3-difluoro-1-((S)-2-oxooxazolidine-4-carbonyl)piperidin-4-yl)oxy)phenyl)pyrimidin-4-yl)cyclopropanecarboxamide] | 7 | 52.6
19 | N#Cc1cc(-c2ccnc(NC(=O)[C@@H]3C[C@H]3c3ccco3)c2)ccc1OC1CCOCC1 (relative stereo) [Example 150, Trans-N-(4-(3-cyano-4-((tetrahydro-2H-pyran-4-yl)oxy)phenyl)pyridin-2-yl)-2-(furan-2-yl)cyclopropane-1-carboxamide] | 70.5 | 636
20 | N#Cc1cc(-c2ccnc(NC(=O)[C@@H]3C[C@H]3c3cccnc3)c2)ccc1O[C@H]1CCN(C(=O)CO)CC1(F)F [Example 141, (1R,2R)—N-(4-(3-cyano-4-(((S)-3,3-difluoro-1-(2-hydroxyacetyl)piperidin-4-yl)oxy)phenyl)pyridin-2-yl)-2-(pyridin-3-yl)cyclopropane-1-carboxamide] | 17.3 | 11.2
21 | N#Cc1cc(-c2ccnc(NC(=O)C3CC3)c2)ccc1O[C@H]1CCN(C(=O)CO)CC1(F)F [Example 10, (S)—N-(4-(3-cyano-4-((3,3-difluoro-1-(2-hydroxyacetyl)piperidin-4-yl)oxy)phenyl)pyridin-2-yl)cyclopropanecarboxamide] | 4.2 | 7.4
